These results are taken from US9169195B2, “Amides, use of amides as solvents for organic compounds, compositions and emulsions containing amides, and method for treating a plant” (AKZO NOBEL CHEMICALS INTERNATIONAL B.V., priority 2009, dated 2015).

The nature of series [1]: Solubility of active ingredients in the amide solvents (solvent added until dissolved, stable 24 h). The conditions noted are these: for Solubility in N-Methyl-N-(2-propylheptyl) formamide: solvent N-methyl-N-(2-propylheptyl) formamide. Here is the method: Various agriculturally active ingredients were dissolved in both N-methyl-N-(2-propylheptyl)-formamide and N-methyl-N-(n-decyl)-formamide in order to evaluate the solubility of the active ingredients in the amides.
This was done by adding the active ingredient (AI) to a beaker and thereafter adding the solvent until the entire AI had been dissolved. The solutions were continually stirred at a temperature of 23° C. during the experiments. When everything had been dissolved, the beakers were left without stirring for 24 h to see if the solution was stable (i.e. no crystallization).

The conditions of series [2]: numbers taken from the e-Pesticide Manual v 4.0; cited from earlier work.
[3] abbreviates: solvent N-methyl-N-(n-decyl) formamide, 23° C.

Each structure is given as a SMILES string. Like-named read-outs stand apart in the source and are kept apart here.

With `Cc1ccc(/N=C/N(C)/C=N/c2ccc(C)cc2C)c(C)c1` [Amitraz], in series [1] (23° C.), the “Solubility in N-Methyl-N-(2-propylheptyl) formamide” value is more than 50 g Al/100 g solvent. Besides, in series [1] (setting [3]), the “Solubility in N-Methyl-N-(n-decyl) formamide” value is more than 50 g Al/100 g solvent. In addition, the “Solubility in Water” value in series [2] is less than 0.00001 g Al/100 g solvent.

As to `O=C(O)COc1ccc(Cl)cc1Cl` [2,4-D acid], the “Solubility in N-Methyl-N-(2-propylheptyl) formamide” value in series [1] (23° C.) was 41 g Al/100 g solvent. In addition, the “Solubility in N-Methyl-N-(n-decyl) formamide” value in series [1] (setting [3]) is listed as more than 50 g Al/100 g solvent. The “Solubility in Water” value in series [2] is recorded as 0.0311 g Al/100 g solvent.

For the compound `Cc1c(COC(=O)[C@@H]2[C@H](/C=C(\Cl)C(F)(F)F)C2(C)C)cccc1-c1ccccc1` (racemic) [Bifenthrin], the “Solubility in N-Methyl-N-(2-propylheptyl) formamide” value in series [1] (23° C.) is on record as more than 50 g Al/100 g solvent. Also, the “Solubility in N-Methyl-N-(n-decyl) formamide” value in series [1] (setting [3]) is recorded as more than 50 g Al/100 g solvent. In addition, the “Solubility in Water” value in series [2] is given as less than 0.0000001 g Al/100 g solvent.

For the compound `CC(C)(C)C(O)(CCc1ccc(Cl)cc1)Cn1cncn1` (centres unmarked) [Tebuconazole], the “Solubility in N-Methyl-N-(n-decyl) formamide” value in series [1] came to 48 g Al/100 g solvent. Besides, the “Solubility in N-Methyl-N-(2-propylheptyl) formamide” value in series [1] (23° C.) was found to be 48 g Al/100 g solvent.
